T/C data for 17 molecules are collected here from PubChem BioAssay AID328 (DTP/NCI, 2004).

Inconclusive results and toxic doses are left out.

This assay deals with BDF1 mice, P388 leukemia ip, median survival T/C. The assay is described as follows: NCI In Vivo Anticancer Drug Screen. Data for tumor model P388 Leukemia (intraperitoneal) in B6D2F1 (BDF1) mice. Particulars: endpoint: median survival time, higher = longer survival. The essentials:
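Mice carrying the transplantable tumour receive compound or vehicle. Survival is followed in each arm, and the treated measure is divided by the vehicle measure.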

[1] abbreviates: dose: 100.0 mg/kg/injection, schedule: Q01DX009 (ip), vehicle: saline with Tween-80.
Setting [2] is: dose: 200.0 mg/kg/injection, schedule: Q01DX009 (ip), vehicle: saline with Tween-80.
[3] abbreviates: dose: 400.0 mg/kg/injection, schedule: Q04DX003 (ip), vehicle: saline with Tween-80.
Where [4] appears, read: dose: 100.0 mg/kg/injection, schedule: Q01DX009 (ip), vehicle: Klucel (hydroxypropylcellulose) (HPC).
[5] abbreviates: dose: 100.0 mg/kg/injection, schedule: Q04DX003 (ip), vehicle: Klucel (hydroxypropylcellulose) (HPC).
[6] abbreviates: dose: 200.0 mg/kg/injection, schedule: Q01DX009 (ip), vehicle: Klucel (hydroxypropylcellulose) (HPC).
[7] abbreviates: dose: 200.0 mg/kg/injection, schedule: Q04DX003 (ip), vehicle: Klucel (hydroxypropylcellulose) (HPC).
[8] abbreviates: dose: 400.0 mg/kg/injection, schedule: Q01DX009 (ip), vehicle: Klucel (hydroxypropylcellulose) (HPC).
Setting [9] is: dose: 400.0 mg/kg/injection, schedule: Q04DX003 (ip), vehicle: Klucel (hydroxypropylcellulose) (HPC).
Where [10] appears, read: dose: 50.0 mg/kg/injection, schedule: Q01DX009 (ip), vehicle: saline with Tween-80.
Where [11] appears, read: dose: 100.0 mg/kg/injection, schedule: Q01DX001 (ip), vehicle: saline with Tween-80.
[12] abbreviates: dose: 200.0 mg/kg/injection, schedule: Q01DX001 (ip), vehicle: saline with Tween-80.
Setting [13] is: dose: 400.0 mg/kg/injection, schedule: Q01DX001 (ip), vehicle: saline with Tween-80.
Where [14] appears, read: dose: 100.0 mg/kg/injection, schedule: Q04DX003 (ip), vehicle: saline with Tween-80.
The mark [15] stands for this setting: dose: 200.0 mg/kg/injection, schedule: Q04DX003 (ip), vehicle: saline with Tween-80.

Turning to `CN(Cc1cnc2nc(N)nc(N)c2n1)c1c(Cl)cc(C(=O)NC(CCC(=O)O)C(=O)O)cc1Cl` (centres undefined), the T/C is, setting by setting: (dose: 17.5 mg/kg/injection, schedule: Q01DX009 (ip), vehicle: saline) 213 % of control; (dose: 35.0 mg/kg/injection, schedule: Q01DX009 (ip), vehicle: saline) 270 % of control; (dose: 70.0 mg/kg/injection, schedule: Q01DX009 (ip), vehicle: saline) 270 % of control; under setting [1], 95 % of control; under setting [2], 86 % of control; (dose: 264.0 mg/kg/injection, schedule: Q04DX003 (ip), vehicle: saline with Tween-80) 175 % of control. Further, the T/C under setting [3] is 241 % of control and the T/C (dose: 600.0 mg/kg/injection, schedule: Q04DX003 (ip), vehicle: saline with Tween-80) was 250 % of control.
For the molecule `CC(C)(C)c1cc(CO)cc(C(C)(C)C)c1O`, the T/C is 107 % of control under setting [4]; 113 % of control under setting [5]; 103 % of control under setting [6]; 118 % of control under setting [7]; 111 % of control under setting [8]; 100 % of control under setting [9].
`N#C[S-].N#C[S-].[NH-]CC[NH-].[Pt+4]`: the T/C reads like this: (dose: 10.0 mg/kg/injection, schedule: Q01DX009 (ip), vehicle: saline with Tween-80) 113 % of control; (dose: 10.0 mg/kg/injection, schedule: Q04DX003 (ip), vehicle: saline with Tween-80) 104 % of control; (dose: 20.0 mg/kg/injection, schedule: Q04DX003 (ip), vehicle: saline with Tween-80) 100 % of control; (dose: 26.4 mg/kg/injection, schedule: Q01DX009 (ip), vehicle: saline with Tween-80) 90 % of control; (dose: 40.0 mg/kg/injection, schedule: Q01DX009 (ip), vehicle: saline with Tween-80) 90 % of control; (dose: 40.0 mg/kg/injection, schedule: Q04DX003 (ip), vehicle: saline with Tween-80) 86 % of control. In addition, the T/C (dose: 60.0 mg/kg/injection, schedule: Q01DX009 (ip), vehicle: saline with Tween-80) was 118 % of control.
Consider `COc1cc2c3c(c1)-c1nc4ccccc4cc1CN3CCC2`, for which the T/C (dose: 12.5 mg/kg/injection, schedule: Q04DX003 (ip), vehicle: other) is 100 % of control; the T/C (dose: 25.0 mg/kg/injection, schedule: Q04DX003 (ip), vehicle: other) is 113 % of control; the T/C (dose: 50.0 mg/kg/injection, schedule: Q04DX003 (ip), vehicle: other) is 109 % of control.
For the molecule `ClC(Cl)(Cl)SSC(=Nc1ccccc1)SSC(Cl)(Cl)Cl`, the T/C was 106 % of control under setting [10] and 117 % of control under setting [1].
For the molecule `CC(=O)Nc1ccc(NNCc2ccccc2)c(N)c1`, the T/C is 97 % of control under setting [11], 96 % of control under setting [12] and 91 % of control under setting [13].
Regarding `O=C1C=C(c2ccccc2)C(c2ccccc2)C(c2ccccc2)C1` (centres undefined), the T/C runs as follows: under setting [14], 100 % of control; under setting [15], 91 % of control; under setting [3], 86 % of control.
Consider `COc1cc2c(=O)n(C)c3c4cc5c(cc4ccc3c2cc1OC)OCO5`, for which the T/C by setting is: (dose: 1.0 mg/kg/injection, schedule: Q01DX010 (ip), vehicle: steriod suspending solution) 103 % of control; (dose: 3.0 mg/kg/injection, schedule: Q01DX010 (ip), vehicle: steriod suspending solution) 117 % of control; (dose: 6.0 mg/kg/injection, schedule: Q01DX010 (ip), vehicle: steriod suspending solution) 110 % of control.
`O=C(NC1CCOC1=O)OCc1ccccc1` (centres undefined): the T/C under setting [10] is 100 % of control; the T/C under setting [1] was 100 % of control; the T/C under setting [2] was 100 % of control; the T/C (dose: 400.0 mg/kg/injection, schedule: Q01DX009 (ip), vehicle: saline with Tween-80) was 98 % of control.
For `Cc1ncc([N+](=O)[O-])n1CCSC(N)=O`, the T/C was 120 % of control under setting [14] and 160 % of control under setting [15].
As for `COc1ccc(N2c3ccccc3-c3cc[nH]c(=O)c3[C@H]2O)cc1OC`, the T/C runs as follows: (dose: 37.5 mg/kg/injection, schedule: Q01DX009 (ip), vehicle: Klucel (hydroxypropylcellulose) (HPC)) 119 % of control; (dose: 75.0 mg/kg/injection, schedule: Q01DX006 (ip), vehicle: Klucel (hydroxypropylcellulose) (HPC)) 114 % of control; (dose: 75.0 mg/kg/injection, schedule: Q01DX009 (ip), vehicle: Klucel (hydroxypropylcellulose) (HPC)) 106 % of control; (dose: 150.0 mg/kg/injection, schedule: Q01DX009 (ip), vehicle: Klucel (hydroxypropylcellulose) (HPC)) 163 % of control.
Turning to `CN(C)c1ccc(/C=C/c2ccnc3c(-c4ccccc4)cccc23)cc1`, the T/C is 89 % of control under setting [10] and 91 % of control under setting [1].
For `COc1ccc(C=C2c3ccccc3-c3ccccc32)cc1`, the T/C under setting [11] is 100 % of control, the T/C under setting [12] is 95 % of control and the T/C under setting [13] was 100 % of control.
As for `CC(=N\O)/C(C)=N/O.CC(=N\O)/C(C)=N/O.O=C(O)C1CC[N-]CC1.O=C(O)C1CC[N-]CC1.O=C(O)C1CC[N-]CC1.O=C(O)C1CC[N-]CC1.[Cl-].[Cl-].[Cl][Rh][Cl].[Rh+3]`, the T/C was 100 % of control (dose: 25.0 mg/kg/injection, schedule: Q01DX009 (ip), vehicle: water); 94 % of control (dose: 50.0 mg/kg/injection, schedule: Q01DX009 (ip), vehicle: water); 94 % of control (dose: 200.0 mg/kg/injection, schedule: Q01DX009 (ip), vehicle: water); 88 % of control (dose: 400.0 mg/kg/injection, schedule: Q01DX009 (ip), vehicle: water).
For the molecule `Cc1ccc(S(=O)(=O)N2CC3CC2CN3Cc2ccccc2)cc1` (centres undefined), the T/C reads like this: under setting [4], 109 % of control; under setting [5], 104 % of control; under setting [6], 104 % of control; under setting [7], 100 % of control; under setting [8], 100 % of control; under setting [9], 95 % of control.
Regarding `CCC(C)C(NS(=O)(=O)c1ccc(C)cc1)C(=O)O` (centres undefined), the T/C runs as follows: (dose: 50.0 mg/kg/injection, schedule: Q01DX005 (ip), vehicle: saline with Tween-80) 96 % of control; (dose: 100.0 mg/kg/injection, schedule: Q01DX005 (ip), vehicle: saline with Tween-80) 102 % of control; (dose: 200.0 mg/kg/injection, schedule: Q01DX005 (ip), vehicle: saline with Tween-80) 112 % of control.
With `CN(C)c1nc(NC(=O)NC(=O)c2c(F)cccc2F)nc(N(C)C)n1`, the T/C (dose: 25.0 mg/kg/injection, schedule: Q01DX009 (ip), vehicle: saline with Tween-80) was 88 % of control.
